How the values were obtained:
Histamine H1 receptor = Histamine H1 receptor (Homo sapiens, UniProt P35367); test: Binding affinity to histamine H1 receptor
Cannabinoid receptor 2 = Cannabinoid receptor 2 (Homo sapiens, UniProt P34972); test: Binding affinity to CB2 receptor
[1] = target: T1, 5-hydroxytryptamine receptor 1A (Homo sapiens, UniProt P08908); test: Agonistic activity at human 5HT1A receptor by [35S]GTP-gamma-S binding; assay type: functional
T1 sequence (P08908 whole entry): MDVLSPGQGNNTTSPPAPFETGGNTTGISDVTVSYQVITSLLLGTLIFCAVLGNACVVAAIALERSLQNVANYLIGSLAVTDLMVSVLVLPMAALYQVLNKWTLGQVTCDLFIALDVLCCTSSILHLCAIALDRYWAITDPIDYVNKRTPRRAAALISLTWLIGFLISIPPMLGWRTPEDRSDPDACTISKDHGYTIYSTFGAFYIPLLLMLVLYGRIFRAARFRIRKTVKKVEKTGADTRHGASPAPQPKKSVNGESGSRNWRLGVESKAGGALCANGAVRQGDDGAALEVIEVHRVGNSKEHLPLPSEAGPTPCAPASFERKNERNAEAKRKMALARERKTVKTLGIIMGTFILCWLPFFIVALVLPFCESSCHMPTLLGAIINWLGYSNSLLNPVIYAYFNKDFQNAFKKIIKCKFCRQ

Vasopressin V2 receptor = Vasopressin V2 receptor (Homo sapiens, UniProt P30518); test: Binding affinity to vasopressin 2 receptor
Chain of Vasopressin V2 receptor (P30518 whole entry): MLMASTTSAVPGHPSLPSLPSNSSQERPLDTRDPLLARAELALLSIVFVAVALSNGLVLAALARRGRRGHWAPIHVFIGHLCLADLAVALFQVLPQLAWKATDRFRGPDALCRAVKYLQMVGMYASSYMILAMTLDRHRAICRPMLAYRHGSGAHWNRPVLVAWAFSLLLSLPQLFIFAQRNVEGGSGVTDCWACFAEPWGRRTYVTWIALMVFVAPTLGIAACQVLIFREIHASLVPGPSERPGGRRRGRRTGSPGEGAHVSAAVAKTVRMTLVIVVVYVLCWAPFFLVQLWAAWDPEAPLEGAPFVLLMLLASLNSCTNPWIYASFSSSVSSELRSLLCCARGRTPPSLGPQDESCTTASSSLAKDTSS

[2] = target: Sodium-dependent serotonin transporter (Homo sapiens, UniProt P31645); test: Binding affinity to SERT
Chain of Sodium-dependent serotonin transporter (P31645 whole entry): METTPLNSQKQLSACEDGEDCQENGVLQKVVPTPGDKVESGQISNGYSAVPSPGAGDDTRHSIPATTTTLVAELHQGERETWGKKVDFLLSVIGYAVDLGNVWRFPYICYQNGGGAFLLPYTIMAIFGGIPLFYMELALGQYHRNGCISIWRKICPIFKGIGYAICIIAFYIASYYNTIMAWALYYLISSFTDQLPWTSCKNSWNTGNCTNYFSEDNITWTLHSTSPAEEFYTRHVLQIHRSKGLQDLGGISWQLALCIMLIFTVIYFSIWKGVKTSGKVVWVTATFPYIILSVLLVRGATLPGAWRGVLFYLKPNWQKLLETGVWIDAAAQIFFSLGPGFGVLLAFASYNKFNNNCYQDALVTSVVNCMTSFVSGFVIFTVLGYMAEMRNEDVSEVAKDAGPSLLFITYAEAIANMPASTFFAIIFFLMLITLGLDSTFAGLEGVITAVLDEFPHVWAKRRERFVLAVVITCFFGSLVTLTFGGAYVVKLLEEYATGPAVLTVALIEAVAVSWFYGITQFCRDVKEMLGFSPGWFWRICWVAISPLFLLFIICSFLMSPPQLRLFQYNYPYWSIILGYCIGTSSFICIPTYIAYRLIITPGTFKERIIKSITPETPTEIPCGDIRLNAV

[3] = target: Glutamate receptor ionotropic AMPA (Homo sapiens, UniProt P42261+P42262+P42263+P48058); test: Binding affinity to AMPA receptor; assay type: protein-complex assay
D(1B) dopamine receptor = D(1B) dopamine receptor (Homo sapiens, UniProt P21918); test: Binding affinity to dopamine D5 receptor
[4] = target: Adrenergic receptor alpha-1 (Homo sapiens, UniProt P35348+P25100+P35368); test: Binding affinity to adrenergic alpha-1 receptor; assay type: protein assay
D(4) dopamine receptor = D(4) dopamine receptor (Homo sapiens, UniProt P21917); test: Binding affinity to dopamine D4 receptor
Chain of D(4) dopamine receptor (P21917 whole entry): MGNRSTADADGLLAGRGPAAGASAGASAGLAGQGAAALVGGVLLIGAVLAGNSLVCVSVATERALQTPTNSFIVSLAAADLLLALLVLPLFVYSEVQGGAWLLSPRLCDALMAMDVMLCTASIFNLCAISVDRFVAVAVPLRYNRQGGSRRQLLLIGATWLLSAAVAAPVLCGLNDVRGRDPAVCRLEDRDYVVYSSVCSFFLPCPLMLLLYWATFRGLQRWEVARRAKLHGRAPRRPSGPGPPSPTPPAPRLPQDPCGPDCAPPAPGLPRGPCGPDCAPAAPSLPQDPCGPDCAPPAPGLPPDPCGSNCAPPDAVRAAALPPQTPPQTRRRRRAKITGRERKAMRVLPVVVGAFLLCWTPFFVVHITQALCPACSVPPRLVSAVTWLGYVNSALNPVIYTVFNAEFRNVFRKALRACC

[5] = target: Alpha-2B adrenergic receptor (Homo sapiens, UniProt P18089); test: Binding affinity to adrenergic alpha-2B receptor
[6] = target: 5-hydroxytryptamine receptor 2A (Homo sapiens, UniProt P28223); test: Binding affinity to human 5HT2A receptor
D(1A) dopamine receptor = D(1A) dopamine receptor (Homo sapiens, UniProt P21728); test: Binding affinity to dopamine D1 receptor
Histamine H4 receptor = Histamine H4 receptor (Homo sapiens, UniProt Q9H3N8); test: Binding affinity to histamine H4 receptor
[7] = target: 5-hydroxytryptamine receptor 6 (Homo sapiens, UniProt P50406); test: Binding affinity to human 5HT6 receptor
[8] = target: T1, 5-hydroxytryptamine receptor 1A; test: Displacement of [3H]8-OH-DPAT from human 5HT1A receptor expressed in CHO cells; assay type: cell-based
Histamine H3 receptor = Histamine H3 receptor (Homo sapiens, UniProt Q9Y5N1); test: Binding affinity to histamine H3 receptor
[9] = target: Serotonin 3 (5-HT3) receptor; test: Binding affinity to human 5HT3 receptor; assay type: protein-complex assay
[10] = target: 5-hydroxytryptamine receptor 2C (Homo sapiens, UniProt P28335); test: Binding affinity to human 5HT2C receptor
[11] = target: Alpha-2A adrenergic receptor (Homo sapiens, UniProt P08913); test: Binding affinity to adrenergic alpha-2A receptor
Chain of Alpha-2A adrenergic receptor (P08913 whole entry): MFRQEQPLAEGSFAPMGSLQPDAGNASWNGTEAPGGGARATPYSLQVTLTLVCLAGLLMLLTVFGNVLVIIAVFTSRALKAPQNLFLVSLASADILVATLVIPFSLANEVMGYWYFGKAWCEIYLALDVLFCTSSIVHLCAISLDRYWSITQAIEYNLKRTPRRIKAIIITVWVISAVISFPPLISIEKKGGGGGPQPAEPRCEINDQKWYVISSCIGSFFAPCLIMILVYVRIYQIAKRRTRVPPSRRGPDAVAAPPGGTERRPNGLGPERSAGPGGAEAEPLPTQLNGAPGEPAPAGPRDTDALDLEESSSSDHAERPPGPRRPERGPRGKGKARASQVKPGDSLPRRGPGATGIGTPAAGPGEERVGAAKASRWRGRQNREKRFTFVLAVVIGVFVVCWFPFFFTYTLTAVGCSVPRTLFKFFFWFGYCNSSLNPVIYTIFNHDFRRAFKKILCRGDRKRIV

Histamine H2 receptor = Histamine H2 receptor (Homo sapiens, UniProt P25021); test: Binding affinity to histamine H2 receptor
[12] = Binding affinity to NK receptor
[13] = target: Chromaffin granule amine transporter (Homo sapiens, UniProt P54219); test: Binding affinity to VMAT1
Chain of Chromaffin granule amine transporter (P54219 whole entry): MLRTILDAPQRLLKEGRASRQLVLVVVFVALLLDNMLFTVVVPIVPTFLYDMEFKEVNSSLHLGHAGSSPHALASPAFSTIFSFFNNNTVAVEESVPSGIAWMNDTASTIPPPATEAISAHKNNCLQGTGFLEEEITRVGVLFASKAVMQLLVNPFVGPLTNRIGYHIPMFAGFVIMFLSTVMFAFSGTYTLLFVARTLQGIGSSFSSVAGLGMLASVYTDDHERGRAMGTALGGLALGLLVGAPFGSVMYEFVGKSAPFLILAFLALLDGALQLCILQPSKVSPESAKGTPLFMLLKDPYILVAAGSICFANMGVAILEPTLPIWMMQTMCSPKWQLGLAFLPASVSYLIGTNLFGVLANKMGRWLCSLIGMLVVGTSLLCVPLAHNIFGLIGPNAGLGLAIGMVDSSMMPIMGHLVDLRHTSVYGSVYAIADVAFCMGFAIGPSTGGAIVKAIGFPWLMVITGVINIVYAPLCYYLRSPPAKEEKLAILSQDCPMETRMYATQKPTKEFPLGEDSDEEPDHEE

Vasopressin V1 receptor = Vasopressin V1 receptor (Homo sapiens, UniProt P37288+P47901); test: Binding affinity to vasopressin 1 receptor; assay type: protein assay
Mu-type opioid receptor = Mu-type opioid receptor (Homo sapiens, UniProt P35372); test: Binding affinity to mu opioid receptor
[14] = target: Synaptic vesicular amine transporter (Homo sapiens, UniProt Q05940); test: Binding affinity to VMAT2
Chain of Synaptic vesicular amine transporter (Q05940 whole entry): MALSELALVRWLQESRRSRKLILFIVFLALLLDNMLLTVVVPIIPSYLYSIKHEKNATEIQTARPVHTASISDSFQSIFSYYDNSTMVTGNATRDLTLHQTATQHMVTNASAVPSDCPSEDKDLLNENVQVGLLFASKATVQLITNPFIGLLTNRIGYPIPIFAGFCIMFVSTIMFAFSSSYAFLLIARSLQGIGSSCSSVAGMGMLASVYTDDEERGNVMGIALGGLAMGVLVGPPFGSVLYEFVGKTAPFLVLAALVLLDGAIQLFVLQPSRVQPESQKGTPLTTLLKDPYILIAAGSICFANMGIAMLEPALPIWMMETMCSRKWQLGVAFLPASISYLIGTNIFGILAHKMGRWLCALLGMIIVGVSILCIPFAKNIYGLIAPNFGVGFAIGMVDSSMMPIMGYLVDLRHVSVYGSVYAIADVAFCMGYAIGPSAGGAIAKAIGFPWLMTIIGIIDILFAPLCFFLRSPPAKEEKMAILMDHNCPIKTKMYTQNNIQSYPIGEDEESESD

[15] = target: Glutamate [NMDA] receptor; test: Binding affinity to NMDA receptor; assay type: protein-complex assay
[16] = target: Delta-type opioid receptor (Homo sapiens, UniProt P41143); test: Binding affinity to Delta opioid receptor
Chain of Delta-type opioid receptor (P41143 whole entry): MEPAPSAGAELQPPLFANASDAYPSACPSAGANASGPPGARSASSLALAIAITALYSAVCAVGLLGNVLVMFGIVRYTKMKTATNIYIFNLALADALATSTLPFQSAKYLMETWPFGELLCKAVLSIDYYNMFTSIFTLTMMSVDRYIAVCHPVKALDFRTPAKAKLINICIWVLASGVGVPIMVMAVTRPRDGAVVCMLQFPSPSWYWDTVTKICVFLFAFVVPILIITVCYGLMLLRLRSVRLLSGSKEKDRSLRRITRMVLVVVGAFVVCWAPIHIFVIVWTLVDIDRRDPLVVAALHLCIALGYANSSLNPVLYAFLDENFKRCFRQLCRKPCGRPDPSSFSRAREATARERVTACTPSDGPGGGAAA

Adenosine receptor A2a = Adenosine receptor A2a (Homo sapiens, UniProt P29274); test: Binding affinity to adenosine […] receptor
[17] = Binding affinity to imidazoline receptor
[18] = target: Beta-3 adrenergic receptor (Homo sapiens, UniProt P13945); test: Binding affinity to adrenergic beta-3 receptor
Adenosine receptor A3 = Adenosine receptor A3 (Homo sapiens, UniProt P0DMS8); test: Binding affinity to adenosine A3 receptor
Adenosine A2 receptor = Adenosine A2 receptor (Homo sapiens, UniProt P29275+P29274); test: Binding affinity to adenosine A2 receptor; assay type: protein assay
[19] = target: Sodium-dependent noradrenaline transporter (Homo sapiens, UniProt P23975); test: Binding affinity to NET
[20] = target: Kappa-type opioid receptor (Homo sapiens, UniProt P41145); test: Binding affinity to kappa opioid receptor
[21] = target: T1, 5-hydroxytryptamine receptor 1A; test: Agonistic activity at human 5HT1A in CHO cells by the inhibition of forskolin-stimulated cAMP accumulation; assay type: functional, cell-based
[22] = Binding affinity to calcium channel
[23] = target: Voltage-gated inwardly rectifying potassium channel KCNH2 (Homo sapiens, UniProt Q12809); test: Binding affinity to hERG
Chain of Voltage-gated inwardly rectifying potassium channel KCNH2 (Q12809 whole entry): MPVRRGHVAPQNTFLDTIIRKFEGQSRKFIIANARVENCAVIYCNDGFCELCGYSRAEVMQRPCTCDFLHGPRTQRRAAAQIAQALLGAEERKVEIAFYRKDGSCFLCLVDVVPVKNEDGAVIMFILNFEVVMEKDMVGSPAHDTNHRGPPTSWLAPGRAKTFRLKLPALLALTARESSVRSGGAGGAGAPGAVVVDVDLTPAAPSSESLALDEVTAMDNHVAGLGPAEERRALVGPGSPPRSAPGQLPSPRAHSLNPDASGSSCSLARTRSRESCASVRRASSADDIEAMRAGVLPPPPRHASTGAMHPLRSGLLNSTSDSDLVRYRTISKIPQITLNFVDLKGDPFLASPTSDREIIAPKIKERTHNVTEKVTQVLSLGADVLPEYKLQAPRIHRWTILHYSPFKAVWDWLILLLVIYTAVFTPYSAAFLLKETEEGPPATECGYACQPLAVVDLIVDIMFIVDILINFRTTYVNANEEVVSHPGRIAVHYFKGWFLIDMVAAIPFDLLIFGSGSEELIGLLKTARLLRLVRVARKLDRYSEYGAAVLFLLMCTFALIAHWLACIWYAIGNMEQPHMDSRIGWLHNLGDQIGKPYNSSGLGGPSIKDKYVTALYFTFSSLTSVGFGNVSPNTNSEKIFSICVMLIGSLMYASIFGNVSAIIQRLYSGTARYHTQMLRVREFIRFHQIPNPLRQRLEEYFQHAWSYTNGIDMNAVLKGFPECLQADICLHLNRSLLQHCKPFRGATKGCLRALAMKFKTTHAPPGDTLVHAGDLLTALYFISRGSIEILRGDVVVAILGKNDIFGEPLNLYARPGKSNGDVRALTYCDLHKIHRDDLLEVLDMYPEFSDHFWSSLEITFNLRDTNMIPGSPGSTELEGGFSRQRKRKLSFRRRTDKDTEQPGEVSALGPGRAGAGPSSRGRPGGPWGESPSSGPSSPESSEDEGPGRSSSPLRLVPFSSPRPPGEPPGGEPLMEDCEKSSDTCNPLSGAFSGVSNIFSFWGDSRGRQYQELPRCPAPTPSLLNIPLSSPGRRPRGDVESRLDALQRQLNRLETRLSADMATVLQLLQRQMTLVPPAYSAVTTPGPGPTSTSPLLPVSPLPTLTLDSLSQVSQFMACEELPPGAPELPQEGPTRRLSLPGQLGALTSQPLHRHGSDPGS

[24] = target: Muscarinic acetylcholine receptor; test: Binding affinity to muscarinic receptor; assay type: protein assay
[25] = Binding affinity to mGluR
Cannabinoid receptor 1 = Cannabinoid receptor 1 (Homo sapiens, UniProt P21554); test: Binding affinity to CB1 receptor
D(2) dopamine receptor = D(2) dopamine receptor (Homo sapiens, UniProt P14416); test: Binding affinity to dopamine D2 receptor
[26] = target: 5-hydroxytryptamine receptor 5A (Homo sapiens, UniProt P47898); test: Binding affinity to human 5HT5A receptor
[27] = Binding affinity to GABA receptor
[28] = target: Tumor necrosis factor receptor superfamily member 16 (Homo sapiens, UniProt P08138); test: Binding affinity to neurotrophin receptor
D(3) dopamine receptor = D(3) dopamine receptor (Homo sapiens, UniProt P35462); test: Binding affinity to dopamine D3 receptor
[29] = target: Alpha-2C adrenergic receptor (Homo sapiens, UniProt P18825); test: Binding affinity to adrenergic alpha-2C receptor
[30] = target: Sigma non-opioid intracellular receptor 1 (Homo sapiens, UniProt Q99720); test: Binding affinity to sigma1 receptor
[31] = Binding affinity to sodium channel
[32] = Binding affinity to prostanoid receptor
[33] = target: ATP-dependent translocase ABCB1 (Homo sapiens, UniProt P08183); test: Binding affinity to MDR1
[34] = target: Beta-1 adrenergic receptor (Homo sapiens, UniProt P08588); test: Binding affinity to adrenergic beta-1 receptor
Sigma 2 receptor = test: Binding affinity to sigma2 receptor
[35] = target: Sodium-dependent dopamine transporter (Homo sapiens, UniProt Q01959); test: Binding affinity to DAT
[36] = target: 5-hydroxytryptamine receptor 7 (Homo sapiens, UniProt P34969); test: Binding affinity to human 5HT7 receptor
[37] = target: Beta-2 adrenergic receptor (Homo sapiens, UniProt P07550)
Chain of Beta-2 adrenergic receptor (P07550 whole entry): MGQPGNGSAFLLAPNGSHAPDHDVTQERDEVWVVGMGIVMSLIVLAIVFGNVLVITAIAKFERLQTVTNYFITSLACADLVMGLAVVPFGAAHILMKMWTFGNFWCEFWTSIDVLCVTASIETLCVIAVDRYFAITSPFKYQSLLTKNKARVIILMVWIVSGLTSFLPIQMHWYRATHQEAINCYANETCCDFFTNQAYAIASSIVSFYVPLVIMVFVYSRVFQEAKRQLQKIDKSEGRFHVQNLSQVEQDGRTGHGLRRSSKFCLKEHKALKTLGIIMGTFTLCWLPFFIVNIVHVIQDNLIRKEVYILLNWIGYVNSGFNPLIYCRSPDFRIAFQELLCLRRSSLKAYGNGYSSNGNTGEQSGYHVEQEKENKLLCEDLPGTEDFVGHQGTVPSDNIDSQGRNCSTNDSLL

Compound: Cn1c(=O)cnn(CCCCN2CCN(c3cccc4ccc(O[11CH3])cc34)CC2)c1=O
- Ki (Histamine H1 receptor): 150 nM
- Ki (Cannabinoid receptor 2): > 10000 nM
- EC50 [1]: 0.05 nM
- Ki (Vasopressin V2 receptor): > 10000 nM
- Ki [2]: 6140 nM
- Ki [3]: > 10000 nM
- Ki (D(1B) dopamine receptor): > 10000 nM
- Ki [4]: 32.2 nM
- Ki (D(4) dopamine receptor): 8.5 nM
- Ki [5]: 316 nM
- Ki [6]: 41.5 nM
- Ki (D(1A) dopamine receptor): 7400 nM
- Ki (Histamine H4 receptor): > 10000 nM
- Ki [7]: 120 nM
- Ki [8]: 1.36 nM
- Ki (Histamine H3 receptor): > 10000 nM
- Ki [9]: > 10000 nM
- Ki [10]: 99.6 nM
- Ki [11]: 1010 nM
- Ki (Histamine H2 receptor): 302 nM
- Ki [12]: > 10000 nM
- Ki [13]: > 10000 nM
- Ki (Vasopressin V1 receptor): > 10000 nM
- Ki (Mu-type opioid receptor): > 10000 nM
- Ki [14]: > 10000 nM
- Ki [15]: > 10000 nM
- Ki [16]: > 10000 nM
- Ki (Adenosine receptor A2a): > 10000 nM
- Ki [17]: > 10000 nM
- Ki [18]: > 10000 nM
- Ki (Adenosine receptor A3): > 10000 nM
- Ki (Adenosine A2 receptor): > 10000 nM
- Ki [19]: 6980 nM
- Ki [20]: > 10000 nM
- EC50 [21]: 0.01 nM
- Ki [22]: > 10000 nM
- Ki [23]: > 10000 nM
- Ki [24]: > 10000 nM
- Ki [25]: > 10000 nM
- Ki (Cannabinoid receptor 1): > 10000 nM
- Ki (D(2) dopamine receptor): 22 nM
- Ki [26]: 229 nM
- Ki [27]: > 10000 nM
- Ki [28]: > 10000 nM
- Ki (D(3) dopamine receptor): 62.8 nM
- Ki [29]: 23.7 nM
- Ki [30]: 480 nM
- Ki [31]: > 10000 nM
- Ki [32]: > 10000 nM
- Ki [33]: > 10000 nM
- Ki [34]: 476 nM
- Ki (Sigma 2 receptor): > 10000 nM
- Ki [35]: 407 nM
- Ki [36]: 9.1 nM
- Ki [37]: 60.6 nM

Reference: ChEMBL document CHEMBL1148600, “Synthesis and in vivo validation of [O-methyl-11C]2-{4-[4-(7-methoxynaphthalen-1-yl)piperazin- 1-yl]butyl}-4-methyl-2H-[1,2,4]triazine-3,5-dione: a novel 5-HT1A receptor agonist positron emission tomography ligand” (J Med Chem, 2006)
